Reference: PubChem BioAssay AID208 (DTP/NCI, 2004)
Values joined by “and” are separate entries in the source; they are usually repeats but may differ in a detail not shown here. Equal values may be shown once. Records with an inconclusive call do not appear.

Tested on: HT29 intrarenal xenograft, nude mice, tumor weight change
Assay: NCI In Vivo Anticancer Drug Screen. Data for tumor model HT29;CX-1 Human Adenocarcinoma (MER+) (intrarenal inoculation) in NU/NU BALB/C (nude) mice
Settings: endpoint: mean tumor weight change, higher = larger tumour
Method: The antitumor activity of compounds was measured in mice bearing transplantable tumors. Survival or tumor size were measured and the results are expressed as the measurement made in the treated group (T) divided by the measurement made in the vehicle treated control group (C). The tumor model used in this assay is HT29;CX-1 Human Adenocarcinoma (MER+) (intrarenal inoculation) in NU/NU BALB/C (nude) mice

[1] = dose: 300.0 mg/kg/injection, schedule: Q04DX004 (sc), vehicle: saline with Tween-80
[2] = dose: 600.0 mg/kg/injection, schedule: Q04DX004 (sc), vehicle: saline with Tween-80
[3] = dose: 150.0 mg/kg/injection, schedule: Q04DX004 (sc), vehicle: saline with Tween-80
[4] = dose: 1200.0 mg/kg/injection, schedule: Q04DX004 (sc), vehicle: saline with Tween-80
[5] = dose: 37.5 mg/kg/injection, schedule: Q04DX004 (sc), vehicle: saline

## COc1cccc2c1C(=O)c1c(O)c3c(c(O)c1C2=O)C[C@@](O)(C(=O)CO)C[C@@H]3OC1CC(N2CCOCC2C#N)C(O)C(C)O1 (some centres not stated)
dose: 15.0 micrograms/kg/injection, schedule: Q04DX004 (ip), vehicle: saline
  T/C: 114 % of control
dose: 30.0 micrograms/kg/injection, schedule: Q04DX004 (ip), vehicle: saline
  T/C: 110 % of control
dose: 60.0 micrograms/kg/injection, schedule: Q04DX004 (ip), vehicle: saline
  T/C: 78 % of control

## COc1cccc2c1C(=O)c1c(O)c3c(c(O)c1C2=O)C[C@@](O)(/C(C)=N\O)C[C@@H]3OC1CC(N)C(O)C(C)O1 (some centres not stated)
dose: 12.5 mg/kg/injection, schedule: Q04DX004 (sc), vehicle: saline
  T/C: 150 % of control
dose: 25.0 mg/kg/injection, schedule: Q04DX004 (sc), vehicle: saline
  T/C: 100 % of control
dose: 50.0 mg/kg/injection, schedule: Q04DX004 (sc), vehicle: saline
  T/C: 103 % of control

## CC(O)CCC(=O)c1ccoc1 (configuration not stated)
dose: 3.75 mg/kg/injection, schedule: Q01DX010 (ip), vehicle: saline
  T/C: 97 % of control
dose: 7.5 mg/kg/injection, schedule: Q01DX010 (ip), vehicle: saline
  T/C: 88 % of control
dose: 15.0 mg/kg/injection, schedule: Q01DX010 (ip), vehicle: saline
  T/C: 108 % of control
dose: 30.0 mg/kg/injection, schedule: Q01DX010 (ip), vehicle: saline
  T/C: 89 % of control

## CN(N=O)C(=O)N[C@@H](C=O)[C@@H](O)[C@H](O)[C@H](O)CO
dose: 150.0 mg/kg/injection, schedule: Q04DX004 (sc), vehicle: saline
  T/C: 111 % of control
dose: 300.0 mg/kg/injection, schedule: Q04DX004 (sc), vehicle: saline
  T/C: 38 % of control

## Cc1ccoc1
dose: 50.0 mg/kg/injection, schedule: Q01DX010 (ip), vehicle: saline with Tween-80
  T/C: 92 % of control
dose: 100.0 mg/kg/injection, schedule: Q01DX010 (ip), vehicle: saline with Tween-80
  T/C: 63 % of control
dose: 200.0 mg/kg/injection, schedule: Q01DX010 (ip), vehicle: saline with Tween-80
  T/C: 90 % of control

## CO[C@H](/C(C)=C/C=C/C(C)=C/c1coc(C)n1)[C@H](C)[C@H]1C[C@@H](O)[C@@]2(C)O[C@H]2/C=C/[C@@H](C)[C@@H]2C[C@@H](CC(=O)O2)C[C@H]2O[C@@H]2C(=O)O1
dose: 0.13 mg/kg/injection, schedule: Q04DX004 (sc), vehicle: Klucel (hydroxypropylcellulose) (HPC)
  T/C: 73 % of control and 88 % of control
dose: 1.0 mg/kg/injection, schedule: Q04DX004 (sc), vehicle: Klucel (hydroxypropylcellulose) (HPC)
  T/C: 57 % of control

## CC[C@@]1(O)C(=O)OCc2c1cc1n(c2=O)Cc2cc3ccccc3nc2-1
dose: 0.75 mg/kg/injection, schedule: Q04DX004 (sc), vehicle: saline with Tween-80
  T/C: 75 % of control
dose: 3.0 mg/kg/injection, schedule: Q04DX004 (sc), vehicle: saline with Tween-80
  T/C: 49 % of control
dose: 6.0 mg/kg/injection, schedule: Q04DX004 (sc), vehicle: saline with Tween-80
  T/C: 48 % of control
dose: 32.0 mg/kg/injection, schedule: Q04DX004 (sc), vehicle: saline with Tween-80
  T/C: 8 % of control

## COc1cc(Cc2nccc3cc(OC)c(OC)cc23)c(C(C)=O)c(OC)c1
dose: 20.0 mg/kg/injection, schedule: Q01DX010 (sc), vehicle: saline
  T/C: 109 % of control
dose: 80.0 mg/kg/injection, schedule: Q01DX010 (sc), vehicle: saline
  T/C: 64 % of control

## Oc1ccc(O)cc1
dose: 100.0 mg/kg/injection, schedule: Q04DX004 (sc), vehicle: saline
  T/C: 106 % of control

## Nc1nc(-c2ccccc2)c(Br)c(=O)[nH]1
[1]
  T/C: 124 % of control
[2]
  T/C: 117 % of control
dose: 2400.0 mg/kg/injection, schedule: Q04DX004 (sc), vehicle: saline with Tween-80
  T/C: 102 % of control

## CNC=O
dose: 100.0 mg/kg/injection, schedule: Q01DX010 (ip), vehicle: saline
  T/C: 81 % of control
dose: 200.0 mg/kg/injection, schedule: Q01DX010 (ip), vehicle: saline
  T/C: 64 % of control
dose: 400.0 mg/kg/injection, schedule: Q01DX010 (ip), vehicle: saline
  T/C: -33 % of control

## C[C@H]1C[C@@H]2[C@H]([C@@H](O)C[C@@]3(C)[C@H]2CC[C@]3(O)C(=O)CO)[C@@]2(C)C=CC(=O)C=C12
dose: 200.0 mg/kg/injection, schedule: Q04DX004 (sc), vehicle: Klucel (hydroxypropylcellulose) (HPC)
  T/C: 14 % of control
dose: 400.0 mg/kg/injection, schedule: Q04DX004 (sc), vehicle: Klucel (hydroxypropylcellulose) (HPC)
  T/C: 19 % of control
dose: 800.0 mg/kg/injection, schedule: Q04DX004 (sc), vehicle: Klucel (hydroxypropylcellulose) (HPC)
  T/C: 29 % of control

## CC(=O)OC(C)C1C2=C(C(=O)CC1(C)O)C(=O)c1c(ccc(-c3ccc4c(c3O)C(=O)C3=C(C4=O)C(C(C)OC(C)=O)C(C)(O)CC3=O)c1O)C2=O (configuration not stated)
dose: 0.94 mg/kg/injection, schedule: Q04DX004 (ip), vehicle: saline with Tween-80
  T/C: 94 % of control
dose: 1.9 mg/kg/injection, schedule: Q04DX004 (ip), vehicle: saline with Tween-80
  T/C: 92 % of control
dose: 3.75 mg/kg/injection, schedule: Q04DX004 (ip), vehicle: saline with Tween-80
  T/C: 88 % of control
dose: 7.5 mg/kg/injection, schedule: Q04DX004 (ip), vehicle: saline with Tween-80
  T/C: 101 % of control
dose: 30.0 mg/kg/injection, schedule: Q04DX004 (ip), vehicle: saline with Tween-80
  T/C: 162 % of control

## O=C(O)CC(=O)O.[NH-]C1CCCCC1[NH-].[Pt+2] (configuration not stated)
dose: 10.0 mg/kg/injection, schedule: Q01DX010 (sc), vehicle: dextrose
  T/C: 64 % of control
dose: 20.0 mg/kg/injection, schedule: Q01DX010 (sc), vehicle: dextrose
  T/C: 40 % of control
dose: 40.0 mg/kg/injection, schedule: Q01DX010 (sc), vehicle: dextrose
  T/C: 7 % of control

## CCOC(=O)C1(c2ccccc2)C(=O)Oc2ccccc21 (configuration not stated)
[3]
  T/C: 83 % of control
[1]
  T/C: 98 % of control
[2]
  T/C: 117 % of control
[4]
  T/C: 80 % of control

## C1CC[N-]CC1.[Cl][Pt+2][Cl].[NH-]C1CC1
dose: 25.0 mg/kg/injection, schedule: Q04DX004 (sc), vehicle: water
  T/C: 99 % of control
dose: 50.0 mg/kg/injection, schedule: Q04DX004 (sc), vehicle: water
  T/C: 46 % of control

## O=C(C/C(=N\C(=S)Nc1cc(C(F)(F)F)ccc1Cl)NO)N1CCCC1
dose: 600.0 mg/kg/injection, schedule: Q04DX003 (sc), vehicle: saline with Tween-80
  T/C: 114 % of control
dose: 1200.0 mg/kg/injection, schedule: Q04DX003 (sc), vehicle: saline with Tween-80
  T/C: 88 % of control

## COC1=C(OC)C(=O)C(SC/C=C(\C)CCCC(C)CCCC(C)CCCC(C)C)=CC1=O (configuration not stated)
dose: 300.0 mg/kg/injection, schedule: Q04DX004 (ip), vehicle: saline with Tween-80
  T/C: 97 % of control
dose: 600.0 mg/kg/injection, schedule: Q04DX004 (ip), vehicle: saline with Tween-80
  T/C: 83 % of control
dose: 1200.0 mg/kg/injection, schedule: Q04DX004 (ip), vehicle: saline with Tween-80
  T/C: 88 % of control

## O=P(O)(NCCCl)NCCCl
[5]
  T/C: 54 % of control and 61 % of control
dose: 75.0 mg/kg/injection, schedule: Q04DX004 (sc), vehicle: saline
  T/C: 71 % of control and 80 % of control

## Cc1c(-c2ccc(-c3ccccc3F)cc2)nc2ccc(F)cc2c1C(=O)O
dose: 12.5 mg/kg/injection, schedule: Q01DX010 (ip), vehicle: water
  T/C: 59 % of control
dose: 53.3 mg/kg/injection, schedule: Q01DX009 (ip), vehicle: water
  T/C: 30 % of control

## CCCCNCCCNCCCNC(=O)c1csc(-c2csc(CCNC(=O)C(NC(=O)C(C)C(O)C(C)NC(=O)C(NC(=O)c3nc(C(CC(N)=O)NCC(N)C(N)=O)nc(N)c3C)C(OC3OC(CO)C(O)C(O)C3OC3OC(CO)C(O)C(OC(N)=O)C3O)c3cnc[nH]3)C(C)O)n2)n1 (configuration not stated)
dose: 8.0 mg/kg/injection, schedule: Q01DX010 (sc), vehicle: saline
  T/C: 30 % of control
dose: 32.0 mg/kg/injection, schedule: Q01DX010 (sc), vehicle: saline
  T/C: -32 % of control

## CC1=C(O)C(=O)[C@@H]2O[C@@H]2C1=O
[5]
  T/C: 60 % of control

## CCNC(C)(C)C(SSS)c1ccco1 (configuration not stated)
dose: 75.0 mg/kg/injection, schedule: Q04DX004 (sc), vehicle: saline with Tween-80
  T/C: 121 % of control
[3]
  T/C: 119 % of control
[1]
  T/C: 91 % of control

## CC[C@](O)(C(=O)O)c1cc2n(c(=O)c1CO)Cc1cc3ccccc3nc1-2
dose: 31.25 mg/kg/injection, schedule: Q04DX004 (sc), vehicle: saline
  T/C: 39 % of control

## Nc1nc(N)c(N=O)c(Nc2ccc(Br)cc2)n1
[3]
  T/C: 106 % of control
[1]
  T/C: 83 % of control
[2]
  T/C: 120 % of control
[4]
  T/C: 115 % of control
